“Also recorded” adds a separate entry of the source. Non-standard residues stand in square brackets, D forms with d. Residues, ends and D or L forms follow the SMILES beside them. No end group written: not given here. *: point of attachment. SO3H = sulfated tyrosine (TyrSO3H2), O=S(=O)(O)*; Hyp = O=C(O)[C@@H]1C[C@@H](O)CN1; Cbz = O=C(OCc1ccccc1)*

The source of these data is article PMC9066070, “RGI‐GOLVEN signaling promotes cell surface immune receptor abundance to regulate plant immunity” (EMBO Reports, 2022).

Experiment [1] relates to PRR-BAK1 complex. To be noted: ref Stegmann et al, 2017; cited from earlier work. From the text: FER controls FLS2-BAK1 and EFR-BAK1 complex formation independent of protein accumulation ([…] et al, [2017]). In contrast to GLV2 treatment, the FER ligand RALF23 inhibits PRR-BAK1 complex formation. […] Whether GLV2's promotion of PRR complex formation and the regulation of PRR ...

Experiment [2] concerns FLS2 transcription. Details: method as in Flury et al, 2013; Tintor et al, 2013; Hou et al, 2014. To be noted: ref Flury et al, 2013, Tintor et al, Hou et al, 2014; cited from earlier work.
The test system of experiment [3] is 26S proteasome. In words: FLS2 accumulation in rgi5x after MG132 treatment, western blot. Type of experiment: in vivo, Arabidopsis thaliana. Conditions: rgi5x seedlings, 50 μM MG132, 1 h. The method, then: Figure 6 GLV2 perception by RGIs promotes maximal FLS2 abundance independent of transcription • Twelve‐day‐old WT or 35S::GLV2 8‐5 seedlings were treated with mock or 1 μM GLV2 for 24 h before protein extraction. Western blots were probed with α‐FLS2 or α‐BAK1 antibodies. CBB: Coomassie brilliant blue. • Quantitative real‐time PCR of FLS2 transcripts from 12‐day‐old seedlings treated with mock or 1 μM GLV2 for the indicated time, n = 3 biological replicates. UBQ was used as a house keeping gene. […] Western blot was probed with α‐FLS2 antibodies. • Protein extraction was performed from 12‐day‐old seedlings after 1 h treatment with mock or 50 μM MG132. Western blots were probed with α‐FLS2 antibodies. Data information: Similar results were obtained in three independent experiments. Source data are available online for this figure.
For orientation: In western blotting, separated proteins are transferred to a membrane and probed.

The target of experiment [4] is T1, ectodomain of RGI3 with C-terminal Strep II-9x His tag (RGI3^ECD-Strep II-9x His) (Arabidopsis thaliana, UniProt C0LGR3 25-703, fluorescent dye by Monolith Protein Labeling Kit RED-tris-NTA Second Generation (His-tag reactive)).
T1 construct: It was cloned into the baculovirus transfer vector pMeIBac B1 for secreted expression; not shown: Strep II-9x His, C-terminal, kept
T1 sequence (looked up): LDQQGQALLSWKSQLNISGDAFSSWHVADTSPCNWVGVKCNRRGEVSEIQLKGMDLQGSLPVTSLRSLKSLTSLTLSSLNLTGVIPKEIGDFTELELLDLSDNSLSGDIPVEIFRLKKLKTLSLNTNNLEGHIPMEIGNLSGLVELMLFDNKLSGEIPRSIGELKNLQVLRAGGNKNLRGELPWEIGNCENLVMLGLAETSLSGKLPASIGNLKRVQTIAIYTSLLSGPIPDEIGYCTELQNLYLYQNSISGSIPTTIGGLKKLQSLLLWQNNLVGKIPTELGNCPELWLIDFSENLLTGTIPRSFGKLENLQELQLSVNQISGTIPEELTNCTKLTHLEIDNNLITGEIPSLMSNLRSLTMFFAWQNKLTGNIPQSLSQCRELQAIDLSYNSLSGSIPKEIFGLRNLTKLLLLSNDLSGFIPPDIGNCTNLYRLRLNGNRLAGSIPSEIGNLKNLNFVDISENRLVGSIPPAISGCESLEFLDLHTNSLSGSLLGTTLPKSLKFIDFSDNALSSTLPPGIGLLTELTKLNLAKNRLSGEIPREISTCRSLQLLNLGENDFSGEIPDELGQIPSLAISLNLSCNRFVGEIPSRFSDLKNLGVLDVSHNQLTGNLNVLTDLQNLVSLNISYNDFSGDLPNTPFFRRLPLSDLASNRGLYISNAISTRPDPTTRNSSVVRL
To be noted: both partners purified.

For the molecule “RALF23: FER ligand; RAPID ALKALINIZATION FACTOR peptide (ATRRYISYGALRRNTIPCSRRGASYYNCRRGAQANPYSRGCSAITRCRRS; Protein RALF-like 23; UniProt Q9LUS7 89-138, looked up)”, the “PRR-BAK1 complex formation” value in experiment [1] is on record as “inhibits PRR‐BAK1 complex formation”. “PIP1: PATHOGEN-ASSOCIATED MOLECULAR PATTERN (PAMP)-INDUCED PEPTIDE perceived by RLK7 (GRVLTEKSGDGSATMTVEKMKSTVDSWFQRLASGPSPRGRGH; PAMP-induced secreted peptide 1; UniProt Q1PE40 31-72, looked up)”: the “FLS2 transcription” value in experiment [2] is reported as “upregulation of FLS2 transcription”. Turning to `CC(C)C[C@@H](C=O)NC(=O)[C@H](CC(C)C)NC(=O)[C@H](CC(C)C)NC(=O)OCc1ccccc1` [MG132] (Cbz-Leu-Leu-Leu-aldehyde), in experiment [3], the “FLS2 accumulation defect of rgi5x” value is given as “partial restoration; also recorded: partially rescued”.

B1: GOLVEN2 (GLV2) peptide, tyrosine-sulfated (peptide)
peptide: DMDY(SO3H)NSANKKR[Hyp]IHN
notes: mature GLV2 peptide cut from the GLV2 precursor, Arabidopsis thaliana; also called synthetic GLV2; source: synthetic peptide (Pepmic, Suzhou, China; purity minimum 90%)
Usually Kd stands for the concentration at which binding is half-saturated. Low values mean tighter binding, high ones weaker binding. As for B1, the Kd in experiment [4] amounted to 11.8 nM.

B2: GLV2 peptide without sulfated tyrosine (GLV2^-S) (peptide)
peptide: DMDYNSANKKRPIHN
modifications: without sulfated tyrosine
notes: mature GLV2 peptide cut from the GLV2 precursor, Arabidopsis thaliana, tyrosine not sulfated; also called GLV^-S; source: synthetic peptide (Pepmic, Suzhou, China; purity minimum 90%)
Turning to B2, the dissociation constant (Kd) in experiment [4] was found to be 129 nM.
